{"source": "ChEMBL document CHEMBL1140246", "about": "“Synthesis of cationic beta-vinyl substituted meso-tetraphenylporphyrins and their in vitro activity against herpes simplex virus type 1” (2005)", "key": {"Vero [1]": {"tested_on": "Vero", "assay": "Photocytotoxicity was evaluated on the cell growth inhibition using Vero cells were at the concentration of 10 uM after 48 hr of incubation", "assay_type": "functional, Chlorocebus sabaeus"}, "Human alphaherpesvirus 1 [2]": {"tested_on": "Human alphaherpesvirus 1", "assay": "Photovirucidal effect against herpes simplex virus type 1 after 5 mins of irradiation time with white light of 50 mW/cm2", "assay_type": "functional"}, "Human alphaherpesvirus 1 [3]": {"tested_on": "Human alphaherpesvirus 1", "assay": "Photovirucidal effect against herpes simplex virus type 1 after 15 mins of irradiation time with white light of 50 mW/cm2", "assay_type": "functional"}, "Vero [4]": {"tested_on": "Vero", "assay": "Photocytotoxicity was evaluated on the cell growth inhibition using Vero cells were at the concentration of 5 uM after 48 hr of incubation", "assay_type": "functional, Chlorocebus sabaeus"}, "Vero [5]": {"tested_on": "Vero", "assay": "Photocytotoxicity was evaluated on the cell growth inhibition using Vero cells were at the concentration of 0.25 uM after 48 hr of incubation", "assay_type": "functional, Chlorocebus sabaeus"}, "Human alphaherpesvirus 1 [6]": {"tested_on": "Human alphaherpesvirus 1", "assay": "Photostability against herpes simplex virus type 1 after 1 min of irradiation with total light dose of 3 mW/cm**2", "assay_type": "functional"}, "Vero [7]": {"tested_on": "Vero", "assay": "Photocytotoxicity was evaluated on the cell growth inhibition using Vero cells were at the concentration of 20 uM after 48 h of incubation", "assay_type": "functional, Chlorocebus sabaeus"}, "Human alphaherpesvirus 1 [8]": {"tested_on": "Human alphaherpesvirus 1", "assay": "Photostability against herpes simplex virus type 1 after 5 min of irradiation with total light dose of 15 mW/cm**2", "assay_type": "functional"}, "Vero [9]": {"tested_on": "Vero", "assay": "Photocytotoxicity was evaluated on the cell growth inhibition using Vero cells were at the concentration of 0.5 uM after 48 hr of incubation", "assay_type": "functional, Chlorocebus sabaeus"}, "Vero [10]": {"tested_on": "Vero", "assay": "Photocytotoxicity was evaluated on the cell growth inhibition using Vero cells were at the concentration of 0.1 uM after 48 hr of incubation", "assay_type": "functional, Chlorocebus sabaeus"}, "Vero [11]": {"tested_on": "Vero", "assay": "Concentration required for cellular cytotoxicity against Vero cells"}, "Human alphaherpesvirus 1 [12]": {"tested_on": "Human alphaherpesvirus 1", "assay": "Photostability against herpes simplex virus type 1 after 10 min of irradiation with total light dose of 30 mW/cm**2", "assay_type": "functional"}, "Human alphaherpesvirus 1 [13]": {"tested_on": "Human alphaherpesvirus 1", "assay": "Photostability against herpes simplex virus type 1 after 15 min of irradiation with total light dose of 45 mW/cm**2", "assay_type": "functional"}, "Human alphaherpesvirus 1 [14]": {"tested_on": "Human alphaherpesvirus 1", "assay": "Photostability against herpes simplex virus type 1 after 3 min of irradiation with total light dose of 9 mW/cm**2", "assay_type": "functional"}, "Vero [15]": {"tested_on": "Vero", "assay": "Photocytotoxicity was evaluated on the cell growth inhibition using Vero cells were at the concentration of 1 uM after 48 hr of incubation", "assay_type": "functional, Chlorocebus sabaeus"}, "Vero [16]": {"tested_on": "Vero", "assay": "Photocytotoxicity was evaluated on the cell growth inhibition using Vero cells were at the concentration of 10 uM after 48 h of incubation", "assay_type": "functional, Chlorocebus sabaeus"}, "Human alphaherpesvirus 1 [17]": {"tested_on": "Human alphaherpesvirus 1", "assay": "Photovirucidal effect against herpes simplex virus type 1 with no irradiation time with white light of 50 mW/cm2", "assay_type": "functional"}, "Vero [18]": {"tested_on": "Vero", "assay": "Photocytotoxicity was evaluated on the cell growth inhibition using Vero cells were at the concentration of 20 uM after 48 hr of incubation", "assay_type": "functional, Chlorocebus sabaeus"}}, "data": [{"smiles": "C[n+]1ccc(/C=C/c2cc3[nH]c2c(-c2ccccc2)c2nc(c(-c4ccccc4)c4nc(c(-c5ccccc5)c5ccc([nH]5)c3-c3ccccc3)C=C4)C=C2)cc1.[Cl-]", "values": [{"measurement": "Viability", "setting": "Vero [1]", "result": 62, "unit": "%"}, {"measurement": "Virus inactivation", "setting": "Human alphaherpesvirus 1 [2]", "result": 0, "unit": "%"}, {"measurement": "Virus inactivation", "setting": "Human alphaherpesvirus 1 [3]", "result": 48.99, "unit": "%"}, {"measurement": "Viability", "setting": "Vero [4]", "result": 90.8, "unit": "%"}, {"measurement": "Viability", "setting": "Vero [5]", "result": 99.9, "unit": "%"}, {"measurement": "Intensity", "setting": "Human alphaherpesvirus 1 [6]", "result": 100, "unit": "%"}, {"measurement": "Viability", "setting": "Vero [7]", "result": 28, "unit": "%"}, {"measurement": "Intensity", "setting": "Human alphaherpesvirus 1 [8]", "result": 96, "unit": "%"}, {"measurement": "Viability", "setting": "Vero [9]", "result": 98.3, "unit": "%"}, {"measurement": "Viability", "setting": "Vero [10]", "result": 104.5, "unit": "%"}, {"measurement": "CC50", "setting": "Vero [11]", "result": 13.5, "unit": "µM"}, {"measurement": "Intensity", "setting": "Human alphaherpesvirus 1 [12]", "result": 93, "unit": "%"}, {"measurement": "Intensity", "setting": "Human alphaherpesvirus 1 [13]", "result": 91, "unit": "%"}, {"measurement": "Intensity", "setting": "Human alphaherpesvirus 1 [14]", "result": 99, "unit": "%"}, {"measurement": "Viability", "setting": "Vero [15]", "result": 97.3, "unit": "%"}]}, {"smiles": "C[n+]1ccccc1/C=C/c1cc2[nH]c1c(-c1ccccc1)c1nc(c(-c3ccccc3)c3nc(c(-c4ccccc4)c4ccc([nH]4)c2-c2ccccc2)C=C3)C=C1.[Cl-]", "values": [{"measurement": "Virus inactivation", "setting": "Human alphaherpesvirus 1 [2]", "result": 96.98, "unit": "%"}, {"measurement": "Virus inactivation", "setting": "Human alphaherpesvirus 1 [3]", "result": 99.61, "unit": "%"}, {"measurement": "Viability", "setting": "Vero [4]", "result": 84.6, "unit": "%"}, {"measurement": "Viability", "setting": "Vero [5]", "result": 103.3, "unit": "%"}, {"measurement": "Intensity", "setting": "Human alphaherpesvirus 1 [6]", "result": 100, "unit": "%"}, {"measurement": "Viability", "setting": "Vero [16]", "result": 69, "unit": "%"}, {"measurement": "Intensity", "setting": "Human alphaherpesvirus 1 [8]", "result": 93, "unit": "%"}, {"measurement": "Viability", "setting": "Vero [9]", "result": 101, "unit": "%"}, {"measurement": "Viability", "setting": "Vero [10]", "result": 104.8, "unit": "%"}, {"measurement": "Virus inactivation", "setting": "Human alphaherpesvirus 1 [17]", "result": 27.8, "unit": "%"}, {"measurement": "CC50", "setting": "Vero [11]", "result": 13.7, "unit": "µM"}, {"measurement": "Intensity", "setting": "Human alphaherpesvirus 1 [12]", "result": 88, "unit": "%"}, {"measurement": "Intensity", "setting": "Human alphaherpesvirus 1 [13]", "result": 83, "unit": "%"}, {"measurement": "Intensity", "setting": "Human alphaherpesvirus 1 [14]", "result": 94, "unit": "%"}, {"measurement": "Viability", "setting": "Vero [18]", "result": 18.8, "unit": "%"}, {"measurement": "Viability", "setting": "Vero [15]", "result": 95.3, "unit": "%"}]}]}
